Assay results taken from patent US9834534B2, “Neuraminidase inhibitor compounds, compositions and methods for the use thereof in anti-viral treatments” (THE UNIVERSITY OF BRITISH COLUMBIA, priority 2009, dated 2017).
Where “and” joins values, the source holds several entries; their conditions need not be identical. Identical values can stand only once. Like-named read-outs stand apart in the source and are kept apart here.

Legend:
H1N1 OsR = H1N1 OsR (Influenza A virus (H1N1), UniProt Q289M4); settings: for ki: pH 7.6
B/Perth wt = assay: microbe, parasite or virus in culture; assay type: cell-based; settings: Influenza B virus, read-out: sensitivity to inhibitors, B/Perth wt
sH1N1/08 wt = assay: microbe, parasite or virus in culture; assay type: cell-based; settings: Influenza A virus, read-out: IC50 sH1N1/08 wt
[1] = tested on: B/Florida wt (B/Florida/4/2006); assay: microbe, parasite or virus in culture; assay type: cell-based; settings: Influenza B virus, read-out: IC50 B/Florida wt
sH1N1/01 wt = assay: microbe, parasite or virus in culture; assay type: cell-based; settings: Influenza A virus, read-out: IC50 sH1N1/01 wt
[2] = tested on: Auckland pH1N1 wt (A/Auckland/3/2009); assay: microbe, parasite or virus in culture; assay type: cell-based; settings: Influenza A virus, read-out: IC50 Auckland pH1N1 wt
Fukui H3N2 wt = assay: microbe, parasite or virus in culture; assay type: cell-based; settings: Influenza A virus, H3N2, read-out: IC50 Fukui H3N2 wt
[3] = target: influenza sialidase (subtype N9) (Influenza A virus, UniProt P03472); assay: biochemical; assay type: biochemical
[4] = tested on: influenza A virus, A/HK/1/68 (H3N2); parameters: species or system Balb/C mice (Mus musculus); settings: mouse, in vivo
[5] = tested on: influenza A/Denver/1/57 (H1N1); assay: microbe, parasite or virus in culture; assay type: cell-based, influenza A virus; settings: for minimal effective concentration: Influenza A virus, H1N1, MDCK, read-out: Cytoprotective effect
[6] = tested on: influenza B/HongKong/5/72; assay: microbe, parasite or virus in culture; assay type: cell-based, influenza B virus; settings: for minimal effective concentration: Influenza B virus, MDCK, read-out: Cytoprotective effect
A/Denver (H1N1) = assay type: cell-based, influenza A virus
[7] = tested on: influenza A/Brisbane/10/2007 (H3N2); assay: microbe, parasite or virus in culture; assay type: cell-based, influenza A virus; settings: for minimal effective concentration: Influenza A virus, H3N2, MDCK, read-out: Cytoprotective effect
MDCK cells = settings: dog
A/New Caledonia (H1N1) = assay type: cell-based, influenza A virus
[8] = tested on: influenza B/Florida/04/06; assay type: cell-based; settings: for Relative activity: relative to Zanamivir
[9] = 1 mg/kg; for % weight loss mean +/− SD: mouse, in vivo; for number of animals remaining: n = 5
A/Brisbane NML (H3N2) = assay type: cell-based, influenza A virus
[10] = Balb/C, mouse, in vivo, 1 mg/kg
in vivo = settings: Balb/C, mouse, 1 mg/kg; for half-life: T1/2
[11] = tested on: Sol Isl sH1N1 wt (A/Solomon Islands/3/2006); assay: microbe, parasite or virus in culture; assay type: cell-based, influenza A virus; settings: read-out: IC50 Sol Isl sH1N1 wt

H1N1 OsR, sequence (Q289M4 whole entry, looked up): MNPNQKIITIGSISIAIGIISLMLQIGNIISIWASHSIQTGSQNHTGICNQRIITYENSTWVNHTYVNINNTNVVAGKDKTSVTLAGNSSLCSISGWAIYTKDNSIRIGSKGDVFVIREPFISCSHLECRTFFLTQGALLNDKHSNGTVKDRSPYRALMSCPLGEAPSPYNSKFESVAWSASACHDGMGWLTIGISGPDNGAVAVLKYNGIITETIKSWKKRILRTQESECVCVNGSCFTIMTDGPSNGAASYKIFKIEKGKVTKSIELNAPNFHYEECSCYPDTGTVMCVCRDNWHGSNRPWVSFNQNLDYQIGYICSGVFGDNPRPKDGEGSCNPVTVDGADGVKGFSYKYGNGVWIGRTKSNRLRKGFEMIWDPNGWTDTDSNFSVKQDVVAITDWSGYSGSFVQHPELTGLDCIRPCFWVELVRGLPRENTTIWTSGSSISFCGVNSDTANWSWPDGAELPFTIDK
influenza sialidase (subtype N9), sequence (P03472 whole entry, looked up): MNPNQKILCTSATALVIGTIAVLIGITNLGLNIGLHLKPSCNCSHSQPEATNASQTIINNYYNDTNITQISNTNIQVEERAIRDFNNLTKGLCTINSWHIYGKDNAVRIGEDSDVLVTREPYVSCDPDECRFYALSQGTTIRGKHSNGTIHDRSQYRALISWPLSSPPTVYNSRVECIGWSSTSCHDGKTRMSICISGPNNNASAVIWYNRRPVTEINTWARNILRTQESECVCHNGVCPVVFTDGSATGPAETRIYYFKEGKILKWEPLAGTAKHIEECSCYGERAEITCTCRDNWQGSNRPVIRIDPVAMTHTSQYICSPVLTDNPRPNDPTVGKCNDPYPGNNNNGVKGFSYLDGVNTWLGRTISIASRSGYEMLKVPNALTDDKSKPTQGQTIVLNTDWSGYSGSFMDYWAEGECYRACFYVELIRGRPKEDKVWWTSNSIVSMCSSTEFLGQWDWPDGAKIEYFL

Row | SMILES | IC50 (sH1N1/01 wt) [µM] | IC50 (Fukui H3N2 wt) [µM] | Kd ([3]; 30° C., pH 7.6) [µM] | ki/Kd ([3]; pH 7.6) [min⁻¹ mM⁻¹] | half time for the full inactivation of the sialidase [3] | minimal effective concentration [5] [µg/mL] | minimal effective concentration [6] [µg/mL] | Cytoprotective effect [7] [ng/mL] | minimal effective concentration [7] [µg/mL] | Toxicity (MDCK cells) [µg/mL] | Cytoprotective effect ([8]; Replicate 2) [ng/mL] | Relative activity [5] | Relative activity [6] | Relative activity [7] | Relative toxicity (MDCK cells) | other results
1 | CC(=O)NC1C(NC(=N)N)C(F)C(F)(C(=O)O)OC1[C@H](O)[C@H](O)CO (stereo partly drawn) [4-G3Feq diF SA, 5-Acetamido-2,4,5-trideoxy-2α, 3β-difluoro-4-guanidino-α-D-erythro-L-gluco-nonulopyranosonate] | 0.0126 | 24.9 |  |  |  |  |  |  |  |  |  |  |  |  |  | Half life for reactivation (H1N1 OsR): 9 h; ki (H1N1 OsR): 1.5 ± 0.16 min⁻¹; IC50 (B/Perth wt): 0.0045 µM; IC50 (sH1N1/08 wt): 0.0068 µM; IC50 [1]: 0.002 µM; IC50 [2]: 0.004 µM
2 | CC(=O)N[C@@H]1C(NCc2ccccc2)C(F)[C@](F)(C(=O)O)OC1[C@H](O)[C@H](O)CO (stereo partly drawn) [C4 Bn] |  |  | 306 | 0.61 |  |  |  |  |  |  |  |  |  |  |  | Ki ([3]; 30° C., pH 7.6): 4.08 µM; khyd ([3]; 30° C., pH 7.6): 0.0025 min⁻¹
3 | CC(=O)N[C@@H]1[C@@H](N)[C@@H](F)[C@](F)(C(=O)O)O[C@H]1[C@H](O)[C@H](O)CO [Compound 4, (2R,3R)-4-Amino-2,4-dideoxy-2,3-difluorosialic acid] |  |  | 4 |  | ca. 10 min | 0.888 | 1.78 | 9.2 | 0.0069 | 3.6 | 1074 |  |  |  |  | half time for the full reactivation of the inactivated sialidase [3]: 4.8 h; Ki ([3]; 30° C., pH 7.6): 0.093 µM and 0.0932 µM; khyd ([3]; 30° C., pH 7.6): 0.0024 min⁻¹; survival compared to the untreated control group [4]: somewhat extend survival; % weight loss mean +/− SD ([4]; 1 mg/kg): 16.02 +/− 2.07%; concentration of antiviral at which a confluent monolayer of MDCK cells was protected (A/Denver (H1N1)): <12.854^A μM; concentration of antiviral at which a confluent monolayer of MDCK cells was protected (A/New Caledonia (H1N1)): <12.854^A μM; Cytoprotective effect ([8]; Replicate 1): 947 ng/mL; % weight loss mean +/− SD [9]: 2.68 +/− 1.76%; number of animals remaining [9]: 5; concentration of antiviral at which a confluent monolayer of MDCK cells was protected (A/Brisbane NML (H3N2)): 51.415^B μM
4 | CCOC(=O)[C@]1(F)OC([C@H](O)[C@H](O)CO)[C@H](NC(C)=O)C(N)C1F (stereo partly drawn) [Compound 5, Ethyl (2R,3R)-4-Amino-2,4-dideoxy-2,3-difluorosialylate] |  |  |  |  |  | 0.488 | 0.977 |  | 0.0076 | 125.0 | 290 | 0.009 | 2.27 | 36.4 and 48.6 | 4.5 | Cytoprotective effect ([8]; Replicate 1): 290 ng/mL; Relative activity ([8]; Replicate 1): 7.7; Relative activity ([8]; Replicate 2): 3.1
5 | CCNC1C(F)[C@](F)(C(=O)O)OC([C@H](O)[C@H](O)CO)[C@@H]1NC(C)=O (stereo partly drawn) [Compound 7, (2R,3R)-4-(N-Ethyl) amino-2,4-dideoxy-2,3-difluorosialic acid] |  |  | 14 | 4.1 | ca. 10 min | 3.91 | 3.91 | 61.0 | 0.122 | 7.8 | 3267 | 0.001 | 0.57 |  | 72.7 | Cytoprotective effect ([8]; Replicate 1): 3267 ng/mL; Relative activity ([8]; Replicate 1): 0.67; Relative activity ([8]; Replicate 2): 0.27
6 | CC(=O)N[C@@H]1C(N=[N+]=[N-])C(F)[C@](F)(C(=O)O)OC1[C@H](O)[C@H](O)CO (stereo partly drawn) [Compound 8, (2R,3R)-4-Azido-2,4-dideoxy-2,3-difluorosialic acid] |  |  |  |  |  |  |  |  | 0.104 | 53.4 |  |  |  | 2.7 | 10.6 | Kd ([3]; 4° C.): 240 µM; fold lower kinetic value (ki/Kd) than 23DFSA ([3]; 4° C.): 26 fold; ki/Kd ([3]; 4° C.): 7.5 and 7.5^b min^−1mM^−1
7 | CC(=O)N[C@@H]1C(N)C(F)[C@](F)(C(N)=O)OC1[C@H](O)[C@H](O)CO (stereo partly drawn) [Compound 9, (2R,3R)-4-Amino-2,4-dideoxy-2,3-difluorosialylamide] |  |  | 1020 | 0.34 | ca. 10 min | 3.76 | 15.1 |  | 0.118 | 7.5 |  | 0.001 | 0.15 | 2.4 | 75.5 | 
8 | CC(=O)NC1C(F)[C@](F)(C(=O)O)OC([C@H](O)[C@H](O)CO)[C@@H]1NC(C)=O (stereo partly drawn) [Compound 11, (2R,3R)-4-(N-Acetyl) amino-2,4-dideoxy-2,3-difluorosialic acid] |  |  | 397 | 0.53 | ca. 10 min |  |  |  | 1.6 | 102.3 |  |  |  | 0.2 | 5.6 | 
9 | CC(=O)N[C@@H]1C(NC(=N)N)C(F)[C@](F)(C(=O)O)OC1[C@H](O)[C@H](O)CO (stereo partly drawn) [Compound 12, (2R,3R)-4-Guanyl-2,4-dideoxy-2,3-difluorosialic acid] | 0.115 | 2010 | 9 |  | ca. 10 min |  |  | 74 |  | 0.9 |  |  |  |  |  | half time for the full reactivation of the inactivated sialidase [3]: 6.7 h; Ki ([3]; 30° C., pH 7.6): 0.07 µM and 0.0704 µM; khyd ([3]; 30° C., pH 7.6): 0.0017 min⁻¹; survival compared to the untreated control group [4]: significantly extended; % weight loss mean +/− SD ([4]; 1 mg/kg): 10.75 +/− 4.87%; Half life for reactivation (H1N1 OsR): 116 h; ki (H1N1 OsR): 0.075 ± 0.002 min⁻¹; IC50 (B/Perth wt): 0.054 µM; IC50 [1]: 0.0066 µM; Cinitial [10]: 4954 ng/mL; Cinitial ([10]; iv): 9480 ng/mL; % weight loss mean +/− SD [9]: 4.72 +/− 2.78%; number of animals remaining [9]: 5; half-life (in vivo; inhaled or intranasal): 17.3 min; half-life (in vivo; iv): 8.3 min
10 | CCOC(=O)[C@]1(F)OC([C@H](O)[C@H](O)CO)[C@H](NC(C)=O)C(NC(=N)N)C1F (stereo partly drawn) [Compound 13, Ethyl (2R,3R)-4-Guanyl-2,4-dideoxy-2,3-difluorosialylate] |  |  |  |  |  | 0.71 | 0.71 |  | 0.0444 | 1.4 |  | 0.006 | 3.13 | 6.3 and 8.3 | 400.0 | 
11 | CC(=O)N[C@@H]1C(O)C(F)[C@](F)(C(=O)O)OC1[C@H](O)[C@H](O)CO (stereo partly drawn) [Compound 23DFSA, 2,3-Difluorosialic acid, reference compound] |  |  |  |  |  | 4.26 | 34.1 |  |  |  |  | 0.001 | 0.07 |  |  | ki/Kd ([3]; 4° C.): 196 and 196^b min^−1mM^−1
12 | CCOC(=O)C1=C[C@@H](OC(CC)CC)[C@H](NC(C)=O)[C@@H](N)C1 [Oseltamivir] | 0.0031 | 1.7 |  |  |  |  |  |  |  |  |  |  |  |  |  | IC50 ([11]; Influenza A virus): 0.001 µM; IC50 (sH1N1/08 wt): 0.003 µM; IC50 [1]: 0.0226 µM; IC50 [2]: 0.0002 µM
13 | CC(=O)N[C@H]1[C@H]([C@H](O)[C@H](O)CO)OC(C(=O)O)=C[C@@H]1N=C(N)N [Zanamivir, reference compound] | 0.0019 | 3.8 |  |  |  |  |  | 369.9 |  | 568 | 887 | 1.0 | 1.0 | 1.0 | 1.0 | survival compared to the untreated control group [4]: significantly extended; % weight loss mean +/− SD ([4]; 0.1 mg/kg): 16.73 +/− 2.62%; % weight loss mean +/− SD ([4]; 1 mg/kg): 12.24 +/− 2.34%; IC50 [11]: 0.0022 µM; Cytoprotective effect [8]: 2219 ng/mL; Relative activity ([8]; Replicate 1): 1.0; Relative activity ([8]; Replicate 2): 1.0; IC50 (sH1N1/08 wt): 0.001 µM; AUC(Lung) (Zanamivir/DFSA-4Gu) ([10]; inhaled or intranasal): 1.07; IC50 [2]: 0.0006 µM; AUC (in vivo; inhaled or intranasal): 4230 ng·h/mL; half-life (in vivo; inhaled or intranasal): 19.1 min
